Assay results as given in PubChem BioAssay AID1996.
≈ marks a conversion by molar mass, not a printed value.

Details: buffer; pH 7.4; 200.0 µM

Structure (SMILES)	solubility kinetic [µg/mL]
COc1ccc(NC(=O)N2C[C@@H]3C[C@@H](C2)c2cccc(=O)n2C3)cc1	> 50.9
NC(=O)c1ccsc1NC(=O)COC(=O)/C=C/c1ccccc1[N+](=O)[O-]	4.3 (≈ 11.5 µM)
CC1CCCCN1C(=O)CSc1nc(C2CC2)nc2ccccc12 (centres undefined)	> 51.2
CC1CCN(C(=O)CNC(=O)c2ccc(Br)o2)CC1	> 49.4
Cc1ccc(S(=O)(=O)N2CCOCC2)cc1C(=O)N1CCCC1	> 50.8
Cc1ccc(S(=O)(=O)N2CCCC2c2cccnc2)cc1 (centres undefined)	> 45.4
O=C(CN1CCCCCC1)NCC1CCCO1.O=C(O)C(=O)O (centres undefined)	> 49.6
Cc1ccc(C(=O)NCC(=O)OCC(=O)NCC(F)(F)F)cc1	47.1 (≈ 142 µM)
CS(=O)(=O)N(CC(=O)N1CCCCCC1)c1cccc([N+](=O)[O-])c1	> 53.3
COC(=O)C1=C(C(=O)OC)SC(=C2C(=S)C(C)(C)N(C(=O)C(C)C)c3ccccc32)S1	< 1
COc1cc(C(=O)N2CCCN(C)CC2)cc(OC)c1C.Cl	> 49.3
CCOc1cc(/C=C2\NC(=O)NC2=O)cc([N+](=O)[O-])c1O	> 44
Cc1ccc(Oc2ccc(C(F)(F)F)cc2[N+](=O)[O-])c([N+](=O)[O-])n1	7.2 (≈ 21 µM)
O=C(COc1ccccc1)Nc1ccccc1C(=O)NC1CC1	6.4 (≈ 20.6 µM)
O=C(COC(=O)CCC(=O)c1cccs1)Nc1ccccc1C(F)(F)F	> 57.8
COC(=O)CSc1nc(NC#N)nc(NC(C)(C)C)n1	36.7 (≈ 124 µM)
CN(CCO)c1nc(N)c2c(N)nc3c(c2c1C#N)CC(=O)N3C1CCCC1	10.7 (≈ 28.1 µM)
CNc1ccc(Cl)nn1	> 21.5
CC(C)CCSc1cc(NCCO)c([N+](=O)[O-])c2nonc12	10 (≈ 30.6 µM)
Cc1cc(C(=O)Nc2cccc(S(=O)(=O)N3CCOCC3)c2)c2ccccc2n1	13.1 (≈ 31.8 µM)
O=C(/C=C/c1ccc([N+](=O)[O-])cc1)OCC(=O)N1CCOCC1	10.1 (≈ 31.5 µM)
Fc1cnc(Cl)nc1NC1CCCCC1	27.1 (≈ 118 µM)
O=c1[nH]cnc2c1C(c1ccccc1)c1c(nc[nH]c1=O)O2	> 44.1
Cc1cc(OCCN2CCOCC2)ccc1C(C)C.Cl	34.2
Cl.OC(COCCC12CC3CC(CC(C3)C1)C2)CN1CCCC1 (centres undefined)	42.3

Structure (SMILES)	solubility kinetic [µg/mL]
O=C1CC(NC2CCN(C(=O)c3cccc(F)c3)CC2)C(=O)N1 (centres undefined)	> 47.9
O=C(NC(=S)Nc1ccc([N+](=O)[O-])cc1O)C1CCCCC1	3.5 (≈ 10.8 µM)
CC(C)(CO)NC(=S)NCc1ccco1	> 34.2
O=C(Nc1ncccn1)C1CCCCC1	> 30.8
CCOC(=O)C1CCN(c2ncnc3c2cnn3C)CC1	> 43.4
COc1ccc(OCC(=O)N2CCCC2=O)c([N+](=O)[O-])c1	42.8 (≈ 145 µM)
O=C(c1cnc2ccccc2n1)N1CCN(c2ccc(C(F)(F)F)cn2)CC1	1 (≈ 2.58 µM)
Nc1nnc(SCC(=O)OCC(=O)c2ccccc2)s1	> 46.4
COc1ccccc1NC(=O)CN1CCOCC1	> 37.5
O=c1c(N2CCOCC2)c(N2CCOCC2)c1=O	> 37.8
Cc1cnc(=O)[nH]c1SCC(=O)Nc1nccs1	31 (≈ 110 µM)
CCOC(=O)/C(C#N)=C/C1=C(N2CCOCC2)CC(C)(C)OC1	> 48.1
C=CCOc1c(Cl)cc(CNc2nccs2)cc1OC	38.1 (≈ 123 µM)
Cc1noc(C)c1COC(=O)c1csc2c1CCCC2	8.3 (≈ 28.5 µM)
CC1CN(S(=O)(=O)c2cccc(C(=O)NCc3ccccn3)c2)CC(C)O1 (centres undefined)	> 58.4
c1cnc(N2CCN(c3ccc4ccccc4n3)CC2)nc1	1.3 (≈ 4.46 µM)
COC(=O)c1cc(NC(=O)Cc2cccs2)cc(C(=O)OC)c1	19.5 (≈ 58.5 µM)
O=C1CCCN1CCCNc1ncnc2sccc12	> 41.5
OCCN(CCO)c1nc(N2CCCCC2)c2nc(N(CCO)CCO)nc(N3CCCCC3)c2n1	10.7 (≈ 21.2 µM)
COc1ccc(CC(=O)N2CCCC2)c(OC)c1	36.6 (≈ 147 µM)
Cc1cccc(Nc2nc(N3CCOCC3)nc(N3CCOCC3)n2)c1	34.9 (≈ 97.9 µM)
NC(=O)c1ccc(S(=O)(=O)N2CCSCC2)cc1	37.9 (≈ 132 µM)
CCOC(=O)c1c(C)[nH]c(C(=O)NCC(c2ccco2)N2CCCCC2)c1C (centres undefined)	2 (≈ 5.16 µM)
O=C(Nc1ccccc1C(=O)Nc1ccncc1)c1ccccc1	6 (≈ 18.9 µM)

Results, then the molecule that gave them:

solubility kinetic [µg/mL]	Structure (SMILES)
8 (≈ 24.1 µM)	N#C/C(=C\c1cccnc1)C(=O)Nc1ccc(SC(F)F)cc1
49.9 (≈ 142 µM)	Cc1cc(C)cc(OCC(=O)Nc2ccc(CN3CCCCC3)cc2)c1
0.4 (≈ 1.12 µM)	O=C(NC1CCN(C(=O)Nc2cccc(Cl)c2)CC1)c1ccccc1
46.1 (≈ 128 µM)	O=S(=O)(Nc1ccc(OC(F)(F)F)cc1)c1cccc2nonc12
40.1 (≈ 141 µM)	COc1ccc(CCN=Cc2ccc(O)cc2)cc1OC
2.6 (≈ 6.12 µM)	O=C(Nc1ccc(Cl)c(S(=O)(=O)N2CCOCC2)c1)c1ccc2c(c1)OCO2
> 43.6	C=CCOc1ccc(CNCc2cccnc2)cc1.Cl
28.4 (≈ 93.3 µM)	CSc1nc2ccccc2c(=O)n1C1CCOC(C)(C)C1 (centres undefined)
25.4 (≈ 70.1 µM)	Cc1ccc2c(CN3CCN(Cc4ccccc4)CC3)cc(=O)oc2c1C
< 0.3	COc1ccc(-c2cc(C(=O)Nc3cccc(O)c3)no2)cc1
> 41.6	CCCCN1C(=O)C(=O)N(CC(=O)c2ccc[nH]2)C1=O
8 (≈ 32.4 µM)	CCOC(=O)N1c2ccccc2C=CC1OCC (centres undefined)
40.7 (≈ 126 µM)	Cc1cc(NC(=S)Nc2cccnc2)ccc1Br
> 49.3	COc1ccc2[nH]c3c(=O)n(CCN4CCOCC4)cnc3c2c1
37.6 (≈ 120 µM)	COc1ccccc1N1CCN(CC(O)c2ccccc2)CC1 (centres undefined)
9.2 (≈ 29.6 µM)	O=C(Nc1nc(-c2ccc(Cl)s2)cs1)c1ccco1
2.5 (≈ 8.63 µM)	Cc1cc(Cl)ccc1NC(=O)c1ccc2c(c1)OCO2
> 50	CC1Oc2ccccc2N(CC(=O)NCCN2CCOCC2)C1=O (centres undefined)
1.7 (≈ 4.84 µM)	O=C(/C=C/c1ccc([N+](=O)[O-])cc1)N1CCN(Cc2ccccc2)CC1
47 (≈ 148 µM)	CCN(CC(=O)NC(=O)NC1CCCCC1)Cc1ccccc1
> 45.6	O=C1Nc2ccc(Br)cc2C1(O)c1ccccc1 (centres undefined)
> 42.3	CC(=O)N1c2ccccc2CCc2ccc([N+](=O)[O-])cc21
> 59.3	CC(=O)Nc1ccc(S(=O)(=O)NCCC(=O)NC(C)c2cccs2)cc1 (centres undefined)
> 46.5	O=C(O)CCC(=O)Nc1cccc(-c2nc3ccccc3o2)c1

solubility kinetic [µg/mL]	Structure (SMILES)
> 45	Cc1nn(C)c(C)c1NS(=O)(=O)c1ccc(Cl)cc1
1 (≈ 3.35 µM)	Cc1cccc(C(=O)NC(=S)NC(C)c2ccccc2)c1 (centres undefined)
> 36	C/C(=N/NC(=O)c1ccccn1)c1ccncc1
> 45.4	COc1ccc(CCNC(=O)CSc2ccccn2)cc1
49.8 (≈ 148 µM)	COCC(=O)N1CCCC(C(=O)c2ccc3c4c(cccc24)CC3)C1 (centres undefined)
3.2 (≈ 11 µM)	Cc1ccc2nc(-c3ccc(-c4ccccn4)s3)cn2c1
3.1 (≈ 8.53 µM)	COc1ccccc1NC(=O)c1ccc(COc2ccccc2OC)cc1
4.6 (≈ 15.8 µM)	CC(C)c1ccc(NC(=O)/C(C#N)=C/c2ccncc2)cc1
> 50	Cc1cc(=O)[nH]c(SCC(=O)NCc2ccc3c(c2)OCO3)n1
> 41.7	O=C(O)CCN1C(=O)S/C(=C\c2cccnc2)C1=O
45.1 (≈ 138 µM)	OCCC1CCCCN1CC(O)COCc1ccc(Cl)cc1 (centres undefined)
> 41	Cc1ccc(C)c(C(C)NC(=O)Cc2cccs2)c1 (centres undefined)
38.4 (≈ 143 µM)	CCCC(=O)O/N=C(\c1ccccc1)c1ccncc1
> 51	O=C(CSc1cccc[n+]1[O-])Nc1cc(Cl)ccc1[N+](=O)[O-]
41.5 (≈ 148 µM)	O=C(O)c1cccnc1SCc1cccc(Cl)c1
31.7 (≈ 98.6 µM)	CC(=NCCc1ccccc1)C1=C(O)C(c2ccccc2)OC1=O (centres undefined)
> 48.1	CCOC(=O)c1ccccc1NC(=O)CSc1nncn1C
22.2 (≈ 72.5 µM)	COc1ccc(CCNC(=O)c2ccc3ccccc3n2)cc1
7.8 (≈ 25.6 µM)	CCOc1ccc(NC(=O)CNC(=O)c2cccs2)cc1
> 42.9	O=C(O)Cn1cnc2scc(-c3ccccc3)c2c1=O
> 44.5	CN(C)CCCNc1oc(/C=C/c2ccccc2)nc1C#N
50.9 (≈ 143 µM)	CCc1ccccc1NC(=S)N(CCN(C)C)C(C)c1cccnc1 (centres undefined)
< 0.4	COc1cc(C)ccc1Oc1nc(-c2ccccc2O)nc2ccccc12
> 39.1	CCCNC(=O)N1CCC(Cc2ccccc2)CC1

solubility kinetic [µg/mL]	Structure (SMILES)
> 52.2	O=C(COc1ccccc1Cl)NCCCNC(=O)c1cccnc1
3.4 (≈ 9.84 µM)	CCc1cccc(NS(=O)(=O)c2ccc3c(c2)n(C)c(=O)n3C)c1
2.5 (≈ 8.46 µM)	CC(C)(C)NC(=O)c1cc2c(ccc3ccccc32)oc1=O
> 49.4	OC1(c2ccc3c(c2)OCO3)CCN(Cc2ccc(F)cc2)CC1
26.4 (≈ 121 µM)	COc1ccc(OCCn2ccnc2)cc1
> 39	O=C1CCCC(O)=C1N=Nc1ccc(C(=O)O)cc1
16.9 (≈ 46.1 µM)	COc1ccc(CCNC(=O)CCc2cn(C)c3ccccc23)c(OC)c1
< 0.4	CCCN(CCC)C(=O)c1cc2c(=O)[nH]c3ccc(C)cc3c2s1
9.3 (≈ 22.7 µM)	O=C(NCCc1ccccc1)c1ccc(Cl)c(S(=O)(=O)N2CCOCC2)c1
44.8 (≈ 146 µM)	CN(C)CCn1ccc(O)c(Cc2ccc(Cl)cc2)c1=O
1.6 (≈ 5.07 µM)	COC(=O)Cc1ccc(NC(=S)Nc2cccc(C)n2)cc1
8 (≈ 23.5 µM)	COc1ccc(NC(=S)Nc2cccc(C(F)(F)F)c2)c(C)c1
2.3 (≈ 7.89 µM)	COc1cc2ccccc2cc1C(=O)Nc1ccc(C)cc1
50.1 (≈ 137 µM)	COc1ccccc1CN1CCN(Cc2nc(-c3ccccc3)no2)CC1
47.7 (≈ 143 µM)	Cc1[nH]c2ccccc2c1CCNC(=O)CCC(=O)c1ccccc1
34 (≈ 135 µM)	Cc1oncc1C(=O)Nc1cccc2ccccc12
> 45.2	O=C(Nn1cnc2ccccc2c1=O)c1c(F)cccc1F
> 43.3	Cc1ccc2c(c1)N(CC(=O)N1CCCCC1)C(=O)CO2
> 48.1	O=CN1CCN(C(=O)c2cccc3c2-c2ccccc2C3=O)CC1
> 42.9	O=C(CSc1nccc(=O)[nH]1)c1cc2ccccc2o1
14 (≈ 44.5 µM)	O=C(NCCOC(=O)c1ccccc1)c1ccc([N+](=O)[O-])cc1
0.5 (≈ 1.53 µM)	O=c1[nH]c(-c2ccc(O)cc2)nc2scc(-c3cccs3)c12
